# From PMC9475553, “SHF Acts as a Novel Tumor Suppressor in Glioblastoma Multiforme by Disrupting STAT3 Dimerization” (Advanced Science, 2022)
# What was measured:
# GST-STAT3 = experiment: Pull-down assay, GST-STAT3 with peptide; assay type: binding; settings: GST-STAT3 incubated with C16 or SC for 2 h; Anti-His magnetic beads
# Method: (§1) Figure 7 Peptide derived from the STAT3‐binding sites of SHF is an effective GBM suppressive strategy. A) Binding model between SHF and STAT3 using ZDOCK server. […] B) IF staining determined the cell penetrability and nuclear‐localization of C16. U251 cells were incubated with C16 or SC for 2 h and performed IF staining using the indicated antibodies. Bars, 10 µm. C) The statical analysis of adsorption equilibrium assay detecting the binding of C16 and SC with recombinant STAT3. D) Pull‐down assay indicating C16 binds STAT3. GST‐STAT3 was incubated with C16 or SC for 2 h, and the pull‐down assay was performed using Anti‐His magnetic beads. E) IP assay showing the effect of C16 on STAT3 dimerization. 293T cells transfected with indicated vectors were incubated with C16 for 2 h. The relative quantification of STAT3 dimerization was listed. F) IP assay detecting the effect of C16 on the interaction of STAT3 and DNMT1. […] The relative quantification of STAT3/DNMT1 interaction was listed. […] The relative quantification of STAT3/DNMT1 interaction was listed. […] Positive cells were quantified 20 randomly selected fields per mouse (n = 6, Student's t‐test, **p < 0.01). […]
# Immunoprecipitation (IP) experiments were performed to analyze the protein interactions. […] Precipitated products were analyzed by Western blot using the specified antibodies. […]
# STAT3 targeted genes = experiment: qRT-PCR of STAT3 targeted genes in derived xenografts; assay type: in vivo, mouse; settings: 10 µg i.p. once every 2 days, n = 6, p < 0.01
# Method: as §1, with “293T cells transfected with indicated vectors were incubated with C16 for 2 h.” left out, “listed.” for “listed. F) IP assay detecting the effect of C16 on the interaction of STAT3 and DNMT1.”
# Total RNA was extracted using TRIzol reagent (Invitrogen) according to the manufacturer's instructions. cDNA was synthesized with the M‐MLV Reverse Transcriptase Kit (Cwbio, Beijing, China). PCR analyses were conducted to quantify mRNA expression using Real SYBR Mixture (Cwbio) on a Lightcycler 480 II instrument (Roche Applied Science). […]
substance,measurement,setting,value
"C16: peptide spanning SHF amino acids 388–421, palmitic acid at the N-terminus, amidated C-terminus, 3× His tags added to the C-terminal (PFSSVPEIVHHYASRKLPIKGAEHMSLLYPVAIR; palmitic acid at the N-terminus; amidated C-terminus; left off: 3× His tags, C-terminal, kept)",STAT3 binding in pull-down / in vitro IP,GST-STAT3,contains the STAT3 binding capacity
same,STAT3 targeted gene expression in derived xenografts,STAT3 targeted genes,significantly down‐regulated
